Experimental data from PubChem BioAssay (NCI).
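Interpolation was linear, between the two tested concentrations surrounding the appropriate level; five concentrations were tested over 48 hours in 96-well plates. Here, GI50 denotes the concentration required for 50% inhibition of growth. TGI marks complete inhibition of growth.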

Legend:
Experiment in all cases: growth of human tumour cells (NCI), 48 h
MCF7 breast = tested on: MCF7 breast
OVCAR-4 ovarian = tested on: OVCAR-4 ovarian
786-0 renal = tested on: 786-0 renal
CAKI-1 renal = tested on: CAKI-1 renal
SK-OV-3 ovarian = tested on: SK-OV-3 ovarian
SK-MEL-2 melanoma = tested on: SK-MEL-2 melanoma
CCRF-CEM leukemia = tested on: CCRF-CEM leukemia
SF-295 CNS = tested on: SF-295 CNS
A498 renal = tested on: A498 renal
OVCAR-3 ovarian = tested on: OVCAR-3 ovarian

Structure (SMILES)	TGI (MCF7 breast)	TGI (OVCAR-4 ovarian)	TGI (786-0 renal)	TGI (CAKI-1 renal)	TGI (SK-OV-3 ovarian)	TGI (SK-MEL-2 melanoma)	TGI (CCRF-CEM leukemia)	TGI (SF-295 CNS)	TGI (A498 renal)	TGI (OVCAR-3 ovarian)	GI50 (OVCAR-4 ovarian)	GI50 (CAKI-1 renal)	GI50 (SK-OV-3 ovarian)	GI50 (CCRF-CEM leukemia)	GI50 (A498 renal)	GI50 (OVCAR-3 ovarian)	GI50 (SF-295 CNS)
C#CC(O)/C=C/C(O)CCCC(O)CC#CC(O)C#CCCCCC(O)/C=C/CCCC(=O)CCCCCCCCCCCCCCCC(O)C(O)C#CC(=O)O (stereo unspecified)	> 25 µM	> 25 µM	> 25 µM	> 25 µM	> 25 µM	> 25 µM	> 25 µM	> 25 µM									
COC(=O)c1c(CC(=O)OC(C)C)cc2n(c1=O)Cc1c-2nc2ccccc2c1OC		> 100 µM	> 100 µM	> 100 µM	> 100 µM	> 100 µM	> 100 µM	> 100 µM	> 100 µM	> 100 µM							
O=C(NNC(=O)c1ccncc1)C(=O)Nc1cc(Cl)c(Cl)cc1Cl	> 100 µM	> 100 µM	> 100 µM	> 100 µM	> 100 µM	> 100 µM		> 100 µM	> 100 µM	> 100 µM							
Cc1c(C(=O)O)sc2nc[nH]c(=O)c12	> 100 µM	> 100 µM	> 100 µM	> 100 µM	> 100 µM	> 100 µM		> 100 µM		> 100 µM							
COc1ccc(-c2nc(-c3cnccn3)n(C/C=C/c3ccccc3)n2)cc1	> 100 µM	98.6 µM	46.5 µM		> 100 µM		> 100 µM	73.4 µM		> 100 µM							
C/C(N=NS(=O)(=O)c1c(C)cc(C)cc1C)=C1\C=CC=CN1O		> 100 µM	> 100 µM	> 100 µM	> 100 µM		> 100 µM	> 100 µM	> 100 µM	> 100 µM							
CC1(C)CC(=O)C2=C(C1)NC(=S)C(C#N)C2c1ccccc1 (stereo unspecified)	> 100 µM	> 100 µM	> 100 µM	> 100 µM	> 100 µM	> 100 µM	> 100 µM	> 100 µM		> 100 µM							
C[C@@H]([C@H]1CC[C@@]2(C)[C@@H]3CC[C@@H]4C(=CC3=CC[C@]12C)CC[C@H](N(C)C)C4(C)C)N(C)C	> 100 µM	> 100 µM	> 100 µM	> 100 µM	> 100 µM		> 100 µM	> 100 µM		> 100 µM							
O=c1[nH]c(=S)[nH]c2c1CCCN2			> 100 µM	> 100 µM	> 100 µM	> 100 µM	> 100 µM	> 100 µM		> 100 µM							
COc1cccc(C2C(C#N)=C(N)Oc3cc(OCCCCCC[P+](c4ccccc4)(c4ccccc4)c4ccccc4)ccc32)c1 (stereo unspecified)		1.51 µM		3.48 µM	3.26 µM		3.36 µM	3.19 µM	2.45 µM	1.37 µM	0.384 µM	1.68 µM	1.41 µM	0.596 µM	1.03 µM	0.382 µM	1.58 µM
O=Cn1c2ccccc2c2ccccc21			> 100 µM		> 100 µM	> 100 µM	> 100 µM	> 100 µM	> 100 µM	> 100 µM							
C/C(=N/NC(N)=S)C(CN1CCOCC1)C(C1=C(O)c2ccccc2OC1)c1ccccc1 (stereo unspecified)		> 100 µM	> 100 µM	> 100 µM	> 100 µM	> 100 µM	> 100 µM	> 100 µM	> 100 µM	> 100 µM							
COC(=O)c1ccc(C)cc1C1CN=NC12Cc1cccc(C)c1C2=O (stereo unspecified)	> 100 µM	> 100 µM	> 100 µM	> 100 µM	> 100 µM	63.8 µM	92.8 µM	> 100 µM		> 100 µM							
Cc1cc2ccccc2n2c1nc1ccc(O)cc12	> 10 µM	> 10 µM	> 10 µM	> 10 µM	> 10 µM	> 10 µM	> 10 µM	> 10 µM		> 10 µM							
COc1c(NC(C)=O)c2ccccc2c2ccccc12		> 100 µM	> 100 µM			> 100 µM	> 100 µM	> 100 µM	> 100 µM	> 100 µM							
Oc1c(NCn2nc(CCCCCCCCc3nn(CNc4ccc5ccccc5c4O)c(=S)o3)oc2=S)ccc2ccccc12	> 100 µM	> 100 µM	> 100 µM	> 100 µM	> 100 µM	> 100 µM		> 100 µM	> 100 µM								
COC(=O)CCC(NC(=S)N/N=C(\C)c1cccs1)C(=O)OC (stereo unspecified)		> 100 µM	> 100 µM		> 100 µM	> 100 µM		> 100 µM	> 100 µM	> 100 µM							
O=C(CCC(NC(=O)OCc1ccccc1)C(=O)OCc1ccccc1)Nc1cccc(OCc2ccccc2)c1 (stereo unspecified)	41.3 µM	> 100 µM	33.2 µM	> 100 µM	> 100 µM		99.4 µM	> 100 µM		45.4 µM							
